The values that follow come from PubChem BioAssay AID504568 (NMMLSC, 2011).

This assay concerns 2C TCR mouse CD8+ T cells, vesicle binding, flow cytometry. Kind of assay: modulators of T cell-vesicle binding via LFA-1, confirmation, powder samples, single concentration, mouse 2C TCR, flow cytometry (AID 504568).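 As to all read-outs here: lower values mean less vesicle binding and point to an inhibitor.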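 As to double-positive events (T cell-vesicle binding): the gate for binding is set so anti-LFA-1 blocked control wells show 10% double positives.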 To be noted: stronger effect = lower value; for mean fluorescence percent response: measured here: CD8+ cell vesicle fluorescence mean.

Active and inactive are the calls of the source.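 The calls were made as follows: active = binding readouts below 60% of the midpoint between blocked and unblocked controls, with summed weighted score above 1; inactive = the rest.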

`CN(CC(=O)Nc1cc(S(=O)(=O)N2CCCC2)ccc1Cl)Cc1ccc2c(c1)OCO2`: the double-positive events (T cell-vesicle binding) is 20.9% and the mean fluorescence percent response amounted to 123%.
Regarding `O=C(COC(=O)C12CC3CC(CC(Br)(C3)C1)C2)Nc1cccc(S(=O)(=O)N2CCOCC2)c1`, the double-positive events (T cell-vesicle binding) was 13.9% and the mean fluorescence percent response worked out at 91.1%.
Taken in the same sequence, the figures for `O=C(Cn1cc(C(F)(F)F)cc(Cl)c1=O)NCCc1ccc(Cl)cc1Cl` were 26.4% (inactive) and 136%.
`COc1ccc(S(=O)(=O)N2CCCC2C(=O)Nc2ccc(C(C)=O)cc2)cc1` (configuration not stated): the double-positive events (T cell-vesicle binding) was 26.1% (inactive) and the mean fluorescence percent response came to 142%.
Taken in the same sequence, the figures for `CC(Sc1nc2ccccc2[nH]1)C(=O)NC1CCCCC1C` (configuration not stated) were 25.7% (inactive) and 141%.
For `Cc1cc(Cl)c(OCCCSc2nc(C)cc(=O)[nH]2)c(Br)c1` the same measures were 25% and 126%.
`CC(C)(C)NC(=O)COc1ccc(CNCc2cccnc2)cc1`: the double-positive events (T cell-vesicle binding) was 25.7% (inactive) and the mean fluorescence percent response worked out at 148%.
Turning to `O=C(NCc1cccnc1)C(=O)NCC(c1ccco1)N1CCN(c2ccccc2)CC1` (configuration not stated), the double-positive events (T cell-vesicle binding) was 26.8% (inactive) and the mean fluorescence percent response amounted to 149%.
As to `CCCCOc1ccc(C(=O)NCC(=O)N2CCN(C(=O)c3ccco3)CC2)cc1`, the double-positive events (T cell-vesicle binding) was 25.2% and the mean fluorescence percent response was found to be 133%.
For `Cc1ccc(C(=O)NCCCN2CCOCC2)c(C)c1`, the double-positive events (T cell-vesicle binding) is 24.4% and the mean fluorescence percent response worked out at 136%.
For the compound `CCOC(=O)c1c(N2C(=O)CC(Sc3ccccc3C(=O)O)C2=O)sc2c1CCCC2` (configuration not stated), the double-positive events (T cell-vesicle binding) was 9.25% and the mean fluorescence percent response was found to be 59.9%.
For `O=C(O)C1CCC(Cn2c(SCc3cc(=O)n4cc(Cl)ccc4n3)nc3ccsc3c2=O)CC1` (configuration not stated) the same measures were 19.5% and 128%.
As for `CCN(CC)S(=O)(=O)c1ccc(Cl)c(NC(=O)COC(=O)C2CCCCC2)c1`, the double-positive events (T cell-vesicle binding) is 14.5% and the mean fluorescence percent response was found to be 126%.
Regarding `Cc1ccccc1C(=O)NCC(=O)N1CCN(C/C=C/c2ccccc2)CC1`, the double-positive events (T cell-vesicle binding) is 21.8% and the mean fluorescence percent response came to 150%.
As for `Cc1ccccc1C(=O)N1CCC(C(=O)Nc2ccc(C)c(S(=O)(=O)N3CCCCC3)c2)CC1`, the double-positive events (T cell-vesicle binding) is 22.7% and the mean fluorescence percent response stood at 130%.
Consider `O=C(CCC(=O)N1CCOCC1)NCc1cccc(C(F)(F)F)c1`, for which the double-positive events (T cell-vesicle binding) was 24.3% (inactive) and the mean fluorescence percent response was 133%.
Take `Cc1ccc(S(=O)(=O)N2CCN(C(=O)CNC(=O)c3ccc(Cl)cc3)CC2)cc1`: the double-positive events (T cell-vesicle binding) is 29.6% (inactive) and the mean fluorescence percent response was 165%.
Turning to `COc1ccc(NC(=O)CSCC(=O)Nc2cccc(S(=O)(=O)N3CCCCCC3)c2)cc1`, the double-positive events (T cell-vesicle binding) was 21.7% and the mean fluorescence percent response amounted to 136%.
With `COc1cccc(NC(=O)Nc2ccc3nc(C)c(C)nc3c2)c1`, the double-positive events (T cell-vesicle binding) is 18.7% and the mean fluorescence percent response came out at 113%.
For `COCc1c(C(=O)Nc2cccc(S(=O)(=O)N3CCCCC3)c2)oc2ccccc12` the same measures were 14.8% and 104%.
As to `CCOC(=O)C1CCCN(S(=O)(=O)c2ccc(F)c(C(=O)Nc3ccc(F)c(F)c3)c2)C1` (configuration not stated), the double-positive events (T cell-vesicle binding) is 22.4% and the mean fluorescence percent response is 162%.
